Earlier results as cited in patent US11903955B2, “Methods of treating heart failure with reduced ejection fraction” (ASTRAZENECA AB, priority 2019, dated 2024).

Assays:
patients with HFrEF = settings: after 8 months of treatment, PARADIGM-HF; cited from earlier work
[1] = system: patients with systolic heart failure; settings: after 12 months of treatment, SHIFT; cited from earlier work

sacubitril-valsartan
improvement in KCCQ-CS over enalapril (patients with HFrEF): 0.9 point
improvement in KCCQ-OS over enalapril (patients with HFrEF): 1.3 point

COc1cc2c(cc1OC)CC(=O)N(CCCN(C)C[C@H]1Cc3cc(OC)c(OC)cc31)CC2 [ivabradine]
mean improvement in KCCQ-CSS [1]: 1.8 point
mean improvement in KCCQ-OSS [1]: 2.4 point
